The source of these data is PMC3072462 (Journal of medicinal chemistry, 2011).

One data set concerns HIV IN mutant Y143R. Particulars: values from two independent experiments.
The nature of data set [1]: Compound cytotoxicity / cell viability in CEM-SS cells. Type of data set: cell-based. The following applies: human.
The target of data set [2] is recombinant HIV-1 IN (3′P) (Human immunodeficiency virus type 1 group M subtype B, UniProt P04585). In words: In vitro integrase catalytic gel assay, 3′ processing. The class given is biochemical.
Another data set deals with MT-4 cells. Type of data set: cell-based. Particulars: human.
The next data set relates to HIV-1IIIB. Nature of the data set: HIV cytoprotection. The following applies: HIV-1IIIB in CEM-SS cells.

What is called viability is a read-out of living cells in per cent, often relative to untreated cells. Usually IC50 stands for the concentration that inhibits the measured activity by half. `CC(C)c1c(Cc2ccccc2)n(COCc2cccc(Cl)c2F)c(=O)n(O)c1=O` [Compound 13, 6-Benzyl-1-((3-chloro-2-fluorobenzyloxy)methyl)-3-hydroxy-5-isopropylpyrimidine-2,4(1H,3H)-dione]: the “Fold-resistance IC50(mutant)/IC50(WT)” value in the data set on HIV IN mutant Y143R was 7. Moreover, the viability at 6 days, 10 µM in data set [1] was found to be 100%. In addition, in data set [2], the IC50 was more than 111 µM. In addition, the “TC50 (toxicity observed)” value in the data set on MT-4 cells was “c Toxicity observed (TC50 = 2.0 μM)”. The “TI (therapeutic index, CC50/EC50)” value with HIV-1IIIB is recorded as more than 105.
